{"source": "ChEMBL document CHEMBL1121709", "about": "“Importance of the aromatic ring in adrenergic amines. 6. Nonaromatic analogues of phenylethanolamine as inhibitors of phenylethanolamine N-methyltransferase: role of pi-electronic and steric interactions” (J Med Chem, 1981)"}
{"biological_target": "T1, Phenylethanolamine N-methyltransferase (Bos taurus, UniProt P10938)", "T1 sequence (P10938 whole entry)": "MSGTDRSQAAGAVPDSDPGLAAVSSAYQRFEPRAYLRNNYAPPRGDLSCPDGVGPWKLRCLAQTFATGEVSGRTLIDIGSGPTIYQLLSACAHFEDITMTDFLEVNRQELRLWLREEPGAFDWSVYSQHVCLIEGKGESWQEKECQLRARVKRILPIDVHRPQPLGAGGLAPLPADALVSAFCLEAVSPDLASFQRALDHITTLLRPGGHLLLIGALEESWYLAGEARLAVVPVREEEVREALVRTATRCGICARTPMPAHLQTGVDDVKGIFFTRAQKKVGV", "assay": "The compound was measured for the 50% inhibition of phenylethanolamine N-methyl-transferase", "units": {"IC50": "µM"}}
{"compound": "NCC(O)C12CC3C[C@H](C1)C[C@H](C3)C2", "note": "(stereo partly drawn)", "IC50": 195}
{"compound": "NCC(O)C1CCCCCCC1", "note": "(stereo not drawn)", "IC50": 8}
{"compound": "NCC(O)C1CC2C=CC1C2", "note": "(stereo in doubt; 9)", "IC50": 454}
{"compound": "NCC(O)C1CC2C=CC1C2", "note": "(stereo in doubt; 10)", "IC50": 1100}
{"compound": "NCC(O)C1CC2CCC1C2", "note": "(stereo in doubt; 12)", "IC50": 193}
{"compound": "NCC(O)C1CC2CCC1C2", "note": "(stereo in doubt; 13)", "IC50": 475}
{"biological_target": "T1, Phenylethanolamine N-methyltransferase", "assay": "The compound was measured for the 50% inhibition of phenylethanolamine N-methyl-transferase; 50% inhibition was not achieved at 10e-3 M", "units": {"IC50": "µM"}}
{"compound": "NCC(O)C12C=CC(CC1)C2", "note": "(stereo not drawn)", "IC50": "> 1000"}
{"compound": "NCC(O)C12CCC(CC1)C2", "note": "(stereo not drawn)", "IC50": "> 1000"}
